Source: paper PMC9618103, “Exploratory toxicology studies of 2,3-substituted imidazo[1,2-a]pyridines with antiparasitic and anti-inflammatory properties” (Toxicology Research, 2022)

How the values were obtained:
[1] = tested on: Wistar rats; experiment: Subacute toxicity: glomerular filtration rate (creatinine clearance) and serum creatinine; format: in vivo; conditions: for Glomerular Filtration Rate / Serum Creatinine: rats, p.o., 14 days at 10% of LD50 (CCl4, APAP: once daily, 3 days), mean ± SEM, n = 6
Experimental: (§1) For toxicity tests, acclimatized rats were randomly allocated to 12 groups (n = 12 for the control and n = 6 for the rest groups). […] Meanwhile, the aforementioned vehicles (dose volume 2 mL/kg b.w.) were administered to 3 groups. […] The animals were then housed in individual metabolic cages to collect urine for a period of 6 h and then the volume was recorded. Afterward, blood samples were obtained and the serum was separated by centrifugation at 1,620 × g for 10 min at room temperature.
(§2) Serum and urinary creatinine were determined by the Jaffe method. With this value, evaluation was made of the fractional excretion of sodium (FES), fractional excretion of potassium (FEP), and fractional excretion of glucose.[30]^,[31] The GFR was calculated from clearance of endogenous creatinine using the conventional equation:where GFR (CCr) is the creatinine clearance rate (mL/min); UCr and SCr are the creatinine concentrations (mg/dL) in urine and serum, respectively; and φ is the urinary flow rate (UFR) (mL/min). To avoid the error from the tubular secretion of creatinine found in males, only female animals were used.

[2] = tested on: NIH mice; experiment: Acute oral toxicity, median lethal dose (LD50); format: in vivo; conditions: for Category (GHS acute oral toxicity hazard category) / Hazard statement (GHS): based on oral LD50, according to GHS [39]; for Oral LD50: female NIH mice, single oral dose, 14 days observation
Experimental: All treatments were administrated orally (p.o.) according to the scheme mentioned below.
Acute toxicity tests were performed in order to measure the median lethal dose (LD50). After acclimatization, mice were randomly allocated to ten groups (n = 4), including the control group (e.g. water, Tween 80, or PO) and the experimental groups, each with a single dose of one of the IMPYs at 4 levels of dose (0.5, 1.0, 2.0, and 4.0 g/kg b.w.).
Animals were food deprived overnight prior to administration of the chemical compounds or vehicles, and food was returned 4 h after dosing. Animals had access to water ad libitum throughout the study.[27]^,[28]

[3] = tested on: Wistar rats; experiment: Subacute toxicity: serum and urine glucose, urinary protein excretion; format: in vivo; conditions: for Filtered Load of Glucose / Fractional Excretion of Glucose / Serum Glucose / Urinary Glucose Excretion / Urinary Protein Excretion: rats, p.o., 14 days at 10% of LD50 (CCl4, APAP: once daily, 3 days), mean ± SEM, n = 6
Experimental: as §1
Serum and urine glucose concentration were calculated using GOD-PAP kits (RANDOX, Laboratories Ltd, UK). Urinary protein was quantified using the Bradford method.[29]
as §2
(§3) The levels of sodium and potassium were measured in urine and serum using a flame photometer (Corning 400, Medfield, United States). Calculation was made of the clearance, fractional excretion, and filtered load of sodium (FLS), filtered load of potassium (FLP), and filtered load of glucose (FLG) using the conventional equations:where CX is the clearance rate of X (mL/min), CCr is the creatinine clearance rate (mL/min), UX and SX are the […] concentrations of X, respectively, φ is the UFR (mL/min), FEX is the fractional excretion (%) of X, and FLX is the filtered load of X in μEq/min (Na^+ or K^+) or mg/min (glucose).

[4] = tested on: renal secretory pathway of organic anions; experiment: Active tubular secretion of organic acids (PAH uptake in kidney cortex slices); format: in vivo, rats; conditions: kidney cortex slices, PAH 1 mM, 1 h, 25 °C; rats, p.o., 14 days at 10% of LD50 (CCl4, APAP: once daily, 3 days); mean ± SEM, n = 6
Experimental: (§4) For toxicity tests, acclimatized rats were randomly allocated to 12 groups (n = 12 for the control and n = 6 for the rest groups). […] Meanwhile, the aforementioned vehicles (dose volume 2 mL/kg b.w.) were administered to 3 groups. […] Upon completion of the 14-day treatments and before sample collection, the bladders of animals were emptied by gentle pressure on the lower part of the abdomen to induce urination. The animals were then housed in individual metabolic cages to collect urine for a period of 6 h and then the volume was recorded. Afterward, blood samples were obtained and the serum was separated by centrifugation at 1,620 × g for 10 min at room temperature.
p-Aminohippuric acid (PAH) was used as an indicator of the renal secretory pathway of organic anions. Kidneys were extracted and immediately submerged in Ringer solution (pH = 7.4 and mOsm = 290 ± 10 mOsm/kg) under constant bubbling with O2/CO2 (95/5%). The kidneys were decapsulated and slices of the kidney cortex were obtained, which were then incubated in Ringer solution containing PAH (1 mM) for 1 h at 25 °C under constant bubbling with O2/CO2 (95/5%). The levels of PAH were quantified with the Bratton-Marshall method and results were expressed as the PAH tissue/medium ratio (PAH t/m ratio).[31]^,[32]

[5] = tested on: Wistar rats; experiment: Subacute toxicity: serum alanine aminotransferase and alkaline phosphatase activity; format: in vivo; conditions: for Alanine Aminotransferase / Alkaline Phosphatase: serum, rats, p.o., 14 days at 10% of LD50 (CCl4, APAP: once daily, 3 days), mean ± SEM, n = 6
Experimental: as §4
The activities of serum alanine aminotransferase (ALT) and alkaline phosphatase (ALP) were measured with standard kits (RANDOX, Laboratories Ltd, UK).

[6] = tested on: Wistar rats; experiment: Hepatic and renal lipid peroxidation (lipid-soluble fluorescence); format: in vivo; conditions: for Renal Lipoperoxidation: kidney; for Renal Lipoperoxidation / Hepatic Lipoperoxidation: rats, p.o., 14 days at 10% of LD50 (CCl4, APAP: once daily, 3 days), mean ± SEM, n = 6; for Hepatic Lipoperoxidation: liver
Experimental: as §4
Lipid peroxidation (LPO) was evaluated by the formation of lipid-soluble fluorescence, as previously described. Briefly, kidney and liver tissues were homogenized in 3 and 5 mL of phosphate buffer (0.2 M, pH = 7.4), respectively. A volume of 1 mL (kidney) or 0.8 mL (liver) of the homogenates was added to 7 mL of chloroform-methanol (2:1, v/v), and after 15 s of vortex mixing, the resulting mixture was cooled using an ice bath for 30 min to allow for phase separation. The fluorescence of the organic phase was measured using a Shimadzu fluorometer (Japan; λex = 370 nm; λem = 430 nm), whose sensitivity was adjusted to 140 fluorescence units by using 1 μg/mL of quinine sulfate in 50 mM H2SO4. The results were expressed as relative fluorescence units per milligram of protein.[33]
(§5) The protein concentration in homogenates was measured by the Bradford method.[29]

[7] = tested on: Wistar rats; experiment: Subacute toxicity: water and electrolyte balance (osmolality, sodium, potassium, urinary flow); format: in vivo; conditions: for Filtered Load of Potassium / Filtered Load of Sodium / Fractional Excretion of Potassium / Fractional Excretion of Sodium / Serum Osmolality / Serum Potassium / Serum Sodium / U/S Osm ratio / Urinary Flow Rate / Urinary Potassium Excretion / Urinary Sodium Excretion: rats, p.o., 14 days at 10% of LD50 (CCl4, APAP: once daily, 3 days), mean ± SEM, n = 6
Experimental: as §1
Osmolality of serum and urine were assessed (in triplicate) by using a vapor pressure osmometer (Wescor 5500, Logan, United States). U/S ratio as well as osmolar (COsm) and free water clearances were calculated via conventional equations:where UOsm and SOsm are the osmolality values (mOsm/Kg) in urine and serum, respectively, and φ is the UFR (mL/min).
as §3

[8] = tested on: Wistar rats; experiment: Hepatic and renal reactive oxygen species (DCF formation); format: in vivo; conditions: rats, p.o., 14 days at 10% of LD50 (CCl4, APAP: once daily, 3 days), mean ± SEM, n = 6; for Renal ROS: kidney; for Hepatic ROS: liver
Experimental: as §4
Reactive oxygen species (ROS) were measured by formation of 2′,7′-dichlorofluorescein (DCF). An aliquot of 10 μL (kidney) or 5 μL (liver) of the homogenates was added to 1,940 or 1,945 μL of TRIS:HEPES (18:1) and was incubated in the presence of 50 μL of 2′,7′-dichlorofluorescein diacetate for 1 h at 37 °C. In order to quench the reaction, the mixture was chilled using an ice bath. The fluorescence was measured using a Shimadzu fluorometer (Japan; λex = 488 nm; λem = 525 nm). The results were expressed as nM DCF formed per mg protein/h.[33]
as §5

[9] = in comparison with the control group
[10] = in comparison to the control group

Row | SMILES | Glomerular Filtration Rate [1] [mL/min] | Serum Creatinine [1] [mg/dL] | Category (GHS acute oral toxicity hazard category) [2] | Hazard statement (GHS) [2] | Oral LD50 [2] [g/kg b.w.] | Filtered Load of Glucose [3] [mg/min] | Fractional Excretion of Glucose [3] | Serum Glucose [3] [mg/dL] | Urinary Glucose Excretion [3] [ng/min] | Urinary Protein Excretion [3] [µg/min] | PAH t/m ratio [4] | Alanine Aminotransferase [5] [U/L] | Alkaline Phosphatase [5] [U/L] | Renal Lipoperoxidation [6] [URF/mg protein] | Hepatic Lipoperoxidation [6] [URF/mg protein] | Filtered Load of Potassium [7] [µEq/min] | Filtered Load of Sodium [7] [µEq/min] | Fractional Excretion of Potassium [7] [%] | Fractional Excretion of Sodium [7] [%] | Serum Osmolality [7] [mOsm/kg] | also measured
1 | N#Cc1nc2ccccn2c1[N+](=O)[O-] [Compound 2b, 3-nitroimidazo[1,2-a]pyridine-2-carbonitrile] | 1.81 ± 0.26 | 0.56 ± 0.08 | 4 | Harmful if swallowed | 1.606 | 2.29 ± 0.33 | 0.01 ± 1.8E-3% | 126.47 ± 5.03 | 109.06 ± 24.61 | 0.86 ± 0.20 | 2.11 ± 0.20 | 44.90 ± 2.46 | 192.21 ± 38.07 | 0.47 ± 0.03 | 0.64 ± 0.10 | 10.21 ± 1.12 | 267.24 ± 51.35 | 13.47 ± 1.95 | 0.88 ± 0.29 | 288.93 ± 1.51 | FLG (filtered load of glucose), change in words ([3]; versus 2a): increased; serum ALP, change in words ([5]; compared to the control (CCl4 also versus PO)): greater; renal LPO, change in words ([6]; compared to the control group (CCl4 also versus PO)): greater; urinary sodium excretion (USE), change in words ([7]; 2b versus control, tween 80, and 2a, 4 versus control): higher; potassium clearance, change in words ([7]; compared to the control (2b also versus 2a)): increased; urinary potassium excretion (UPE), change in words ([7]; compared to the control and 2a): increased; osmolar clearance, change in words ([7]; compared to the control group): greater; freewater clearance, change in words ([7]; compared to the control group, significant by PLS VIP and ANOVA): lower; UFR (urinary flow rate), change in words [7, 9]: increased; FES (fractional excretion of sodium), change in words ([7]; in comparison with tween 80): increased; Serum Potassium [7]: 5.79 ± 0.31 mEq/L; Serum Sodium [7]: 141.65 ± 15.47 mEq/L; U/S Osm ratio [7]: 3.44 ± 0.10; Urinary Flow Rate [7]: 8.29 ± 1.67 µL/min; Urinary Potassium Excretion [7]: 1.38 ± 0.21 µEq/min; Urinary Sodium Excretion [7]: 1.87 ± 0.39 µEq/min; sodium clearance, change in words ([7]; versus control, tween 80, and 2a): higher; Renal ROS [8]: 225.78 ± 56.22 nM de DCF/mg protein/h; Hepatic ROS [8]: 208.65 ± 30.24 nM de DCF/mg protein/h
2 | CCOC(=O)c1nc2ccccn2c1[N+](=O)[O-] [Compound 1b, ethyl 3-nitroimidazo[1,2-a]pyridine-2-carboxylate] | 0.25 ± 0.03 | 1.38 ± 0.07 | 5 | May be harmful if swallowed | >4.000 | 0.31 ± 0.04 | 0.05 ± 3.9 E-3% | 121.27 ± 7.88 | 141.87 ± 18.46 | 0.57 ± 0.07 | 2.00 ± 0.13 | 30.10 ± 2.99 | 101.41 ± 16.30 | 0.38 ± 0.07 | 0.74 ± 0.07 | 1.70 ± 0.21 | 39.31 ± 4.28 | 15.58 ± 3.10 | 0.85 ± 0.09 | 294.04 ± 0.88 | serum creatinine, change in words ([1]; compared with 1a and 3b): higher; GFR, change in words [1, 10]: lower; serum creatinine level, change in words [1, 10]: greater; FEG (fractional excretion of glucose), change in words ([3]; compared to control values): increased; FLG (filtered load of glucose), change in words ([3]; compared to control values): reduced; FLS (filtered load of sodium), change in words [7, 9]: decreased; Serum Potassium [7]: 6.74 ± 0.39 mEq/L; Serum Sodium [7]: 155.42 ± 3.63 mEq/L; U/S Osm ratio [7]: 2.54 ± 0.20; Urinary Flow Rate [7]: 4.54 ± 0.76 µL/min; Urinary Potassium Excretion [7]: 0.24 ± 0.03 µEq/min; Urinary Sodium Excretion [7]: 0.34 ± 0.05 µEq/min; Renal ROS [8]: 227.17 ± 21.01 nM de DCF/mg protein/h; Hepatic ROS [8]: 285.90 ± 37.33 nM de DCF/mg protein/h
